Assay [1] concerns the target T1, receptor tyrosine kinase DDR1 (Homo sapiens, UniProt Q08345).
T1 construct: endogenous in cells; host or cells: K562 cells / K562 cell lysate
The assay can be described thus: kinobeads competition binding assay in K562 cell lysate (iTRAQ mass spectrometry, Western blot). Conditions: at 1 µM. Background: In western blotting, separated proteins are transferred to a membrane and probed.
Description: From this dataset, dose-response binding profiles were computed.
All experiments were performed in duplicate.

Assay [2] deals with FAK (Homo sapiens, UniProt Q05397). Conditions: phage display studies, Fabian et al., 2005; cited from earlier work.

Bounds are passed on as bounds.

T1 sequence (Q08345 19-913): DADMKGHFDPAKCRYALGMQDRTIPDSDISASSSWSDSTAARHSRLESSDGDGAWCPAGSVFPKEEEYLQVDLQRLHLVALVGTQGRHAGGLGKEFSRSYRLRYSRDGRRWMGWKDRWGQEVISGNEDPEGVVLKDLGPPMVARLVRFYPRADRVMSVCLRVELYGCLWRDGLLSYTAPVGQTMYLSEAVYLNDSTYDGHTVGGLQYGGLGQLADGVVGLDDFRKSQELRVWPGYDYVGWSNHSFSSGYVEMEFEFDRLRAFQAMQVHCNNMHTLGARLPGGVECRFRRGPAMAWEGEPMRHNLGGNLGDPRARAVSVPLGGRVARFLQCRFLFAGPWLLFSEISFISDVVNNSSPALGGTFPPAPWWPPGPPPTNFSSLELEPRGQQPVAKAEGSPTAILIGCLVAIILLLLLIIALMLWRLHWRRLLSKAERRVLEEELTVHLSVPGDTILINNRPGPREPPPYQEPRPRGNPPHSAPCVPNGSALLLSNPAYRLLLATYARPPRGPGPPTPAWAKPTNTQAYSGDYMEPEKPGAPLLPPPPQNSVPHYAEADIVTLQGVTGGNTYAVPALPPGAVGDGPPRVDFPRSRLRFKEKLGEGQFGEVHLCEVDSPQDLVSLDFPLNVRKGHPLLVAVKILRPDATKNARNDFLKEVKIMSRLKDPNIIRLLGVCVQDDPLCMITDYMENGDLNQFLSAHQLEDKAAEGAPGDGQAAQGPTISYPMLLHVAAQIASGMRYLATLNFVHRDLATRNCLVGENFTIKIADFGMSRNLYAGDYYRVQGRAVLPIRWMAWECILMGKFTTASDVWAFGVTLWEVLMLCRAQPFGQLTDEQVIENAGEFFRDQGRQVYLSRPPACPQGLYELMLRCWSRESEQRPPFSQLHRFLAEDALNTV
Sequence of FAK (Q05397 whole entry, species assumed): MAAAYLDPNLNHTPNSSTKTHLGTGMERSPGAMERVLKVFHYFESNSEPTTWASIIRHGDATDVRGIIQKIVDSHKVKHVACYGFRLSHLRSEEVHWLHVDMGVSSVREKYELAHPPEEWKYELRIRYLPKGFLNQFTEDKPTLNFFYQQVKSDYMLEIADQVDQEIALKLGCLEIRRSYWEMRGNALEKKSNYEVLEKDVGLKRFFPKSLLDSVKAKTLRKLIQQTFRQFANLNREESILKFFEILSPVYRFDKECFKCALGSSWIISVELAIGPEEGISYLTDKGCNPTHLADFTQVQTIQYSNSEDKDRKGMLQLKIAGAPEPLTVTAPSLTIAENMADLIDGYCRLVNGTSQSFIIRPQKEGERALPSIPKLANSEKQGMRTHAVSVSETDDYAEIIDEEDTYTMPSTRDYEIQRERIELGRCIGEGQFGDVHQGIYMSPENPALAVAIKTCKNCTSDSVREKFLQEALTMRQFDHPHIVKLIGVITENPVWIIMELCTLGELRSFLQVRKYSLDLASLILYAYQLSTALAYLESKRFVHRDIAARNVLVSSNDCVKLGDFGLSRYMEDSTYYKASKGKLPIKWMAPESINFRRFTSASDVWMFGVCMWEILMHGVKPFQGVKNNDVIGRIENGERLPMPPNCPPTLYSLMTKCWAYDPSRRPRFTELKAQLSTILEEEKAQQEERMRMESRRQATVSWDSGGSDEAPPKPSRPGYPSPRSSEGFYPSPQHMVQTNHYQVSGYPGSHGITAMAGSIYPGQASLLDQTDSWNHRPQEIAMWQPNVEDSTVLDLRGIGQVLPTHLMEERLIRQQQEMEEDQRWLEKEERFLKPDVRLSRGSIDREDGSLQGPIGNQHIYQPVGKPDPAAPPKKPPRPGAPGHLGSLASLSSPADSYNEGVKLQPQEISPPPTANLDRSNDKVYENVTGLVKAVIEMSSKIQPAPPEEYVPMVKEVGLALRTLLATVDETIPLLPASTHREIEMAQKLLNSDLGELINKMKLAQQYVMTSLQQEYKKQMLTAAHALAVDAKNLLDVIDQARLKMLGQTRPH

For the compound `COc1cc(Nc2c(C#N)cnc3cc(OCCCN4CCN(C)CC4)c(OC)cc23)c(Cl)cc1Cl` [bosutinib], the competition in assay [1] is reported as greater than 50%. As to `Cc1ccc(NC(=O)c2ccc(CN3CCN(C)CC3)cc2)cc1Nc1nccc(-c2cccnc2)n1` [imatinib, 4-(4-methylpiperazin-1-ylmethyl)-N-[4-methyl-3-(4-pyridin-3-yl)pyrimidin-2-ylamino)phenylbenzamide], the “binding to FAK” value in assay [2] is “no binding”.

These data come from patent EP1992347A1 (CELLZOME AG, priority 2007, dated 2008).
